We go through one compound from patent EP4729529A1, “PREPARATION OF PEPTIDE INHIBITOR OF INTERLEUKIN-23 RECEPTOR AND USE THEREOF” (Xizang Haisco Pharmaceutical Co., Ltd., priority 2023, dated 2024).

Positions of bridges follow the written chain, without caps; N, C: chain ends. Non-standard residues stand in square brackets, D forms with d. Residues, ends and D or L forms follow the SMILES beside them. Phe(4-OC2H4NH2,2,3-(CH2)3) = NCCOc1ccc(C[C@H](N)C(=O)O)c2c1CCC2; Trp(7-Me) = Cc1cccc2c(C[C@H](N)C(=O)O)c[nH]c12; 2Nal = N[C@@H](Cc1ccc2ccccc2c1)C(=O)O; 3Pal = N[C@@H](Cc1cccnc1)C(=O)O; Pen = CC(C)(S)[C@H](N)C(=O)O; Thp = NC1(C(=O)O)CCOCC1; Sar = CNCC(=O)O Where only a bound is given, the exact number is not on record here.

The target in one data set is T1, IL-23R (Homo sapiens, UniProt Q5VWK5).
T1 construct: host or cells: HEK-blue IL23 reporter gene cell line
T1 sequence (Q5VWK5 24-629): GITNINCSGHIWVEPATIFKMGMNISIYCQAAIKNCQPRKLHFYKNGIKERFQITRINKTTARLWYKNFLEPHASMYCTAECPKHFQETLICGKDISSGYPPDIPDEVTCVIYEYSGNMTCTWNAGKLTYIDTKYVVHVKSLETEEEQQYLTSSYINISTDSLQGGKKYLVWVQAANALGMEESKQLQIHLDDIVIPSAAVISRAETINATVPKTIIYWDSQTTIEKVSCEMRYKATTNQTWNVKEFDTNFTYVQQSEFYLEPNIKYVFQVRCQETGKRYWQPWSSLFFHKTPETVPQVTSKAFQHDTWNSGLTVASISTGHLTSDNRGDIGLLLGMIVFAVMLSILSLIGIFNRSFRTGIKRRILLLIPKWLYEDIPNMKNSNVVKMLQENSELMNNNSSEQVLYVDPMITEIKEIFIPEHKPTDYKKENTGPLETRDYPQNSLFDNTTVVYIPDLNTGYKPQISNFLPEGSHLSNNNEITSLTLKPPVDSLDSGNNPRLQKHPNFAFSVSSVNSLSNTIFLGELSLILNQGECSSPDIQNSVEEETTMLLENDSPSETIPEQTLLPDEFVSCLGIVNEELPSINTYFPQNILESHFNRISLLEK
Kind of data set: IL-23R reporter gene assay (HEK-blue IL23 reporter gene cell line, rhIL23 stimulation). The class given is cell-based. Particulars: Inhibition of IL-23R, rhIL23 1 ng/mL, 24 hours. In a few lines:
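HEK-blue IL23 reporter cells (5000/well, plated overnight) preincubated 0.5 h with compound, then stimulated 24 h at 37°C with rhIL23 at 1 ng/mL final. Supernatant read with Quanti-Blue after 1 h (absorbance 620-655 nm); inhibition normalised to DMSO and unstimulated controls, IC50 from four-parameter fit.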

Data set [1] in a line: Test of stability in gastrointestinal fluid: simulated intestinal fluid (trypsin, pH 6.8). The class given is in vitro ADME. Particulars: 0.5 mg/ml, 37°C. Here is the method:
6. Test of stability in gastrointestinal fluid
1.3. Preparation of 0.1 mol/L NaOH: 0.4 g of NaOH was dissolved in 100 ml of water.
1.4. Preparation of simulated intestinal fluid: 0.68 g of potassium dihydrogen phosphate was dissolved in 50 ml of water, and the pH value was adjusted to 6.8 with 0.1 mol/L sodium hydroxide solution. 1 g of trypsin was dissolved in an appropriate amount of water. After the two solutions were mixed, the mixture was diluted with water to 1000 ml.
About 12.5 mg of the sample was added to a 25 ml volumetric flask and dissolved in the simulated gastric fluid (or simulated intestinal fluid), and the mixture was diluted to the mark.
Instrument model: Agilent 1260 Infinity; mobile phase A: 10 mmol/L K2HPO4, and mobile phase B: acetonitrile; column: Phenomenex Gemini^@ 3 um C18 110Å 150 * 4.6 mm; wavelength: 224 nm; column temperature: 30°C; sample tray temperature: 37°C; injection time: 35 min; injection volume: 10 ul; injection mode: gradient injection; and gradient method. Table 7. Gradient mobile phase
Sampling and testing: Firstly, the blank solution (simulated gastric fluid or simulated intestinal fluid) was tested. Then, the prepared sample (newly prepared for use) was placed in the injection tray for immediate injection. Then, a needle of sample was injected at 4.5 h, 9.5 h, and 18 h, respectively.
Table 8. Stability in gastrointestinal fluid

Data set [2] in a line: Test of stability in plasma, human. As to conditions: read-out: Residual rate% at 37°C for 6 h. Format: in vitro ADME. Here is the method:
(§1) 5. Test of stability in plasma
(§2) In this experiment, plasmas of five species, including human, monkey, dog, rat, and mouse, were used to evaluate the stability in plasma of Compound 7.
(§3) A plasma sample was prepared at a concentration level of 1000 ng/mL, and dispensed into EP tubes at time points 0 h and 6 h. Acetonitrile solution containing an internal standard was added directly to the 0 h sample; and the 6 h sample was placed at 37°C for the corresponding time, and then added with an acetonitrile solution containing internal standard. The concentration of the test compound in the sample was measured by the LC-MS/MS method, and the residual rate was calculated from the ratio of the peak areas of the test compound to the internal standard in the time point sample and the 0 h sample.
(§4) Experimental results: At the concentration level of 1000 ng/mL under the test conditions, the residual rates of the test Compounds were shown in Table 6 below. Table 6. Residual rate% at 37°C for 6 h

Data set [3] is described as follows: Test of stability in plasma, mouse. Format: in vitro ADME. Particulars: read-out: Residual rate% at 37°C for 6 h. Here is the method: as §1, §2, §3, §4
Data set [4] is described as follows: Pharmacokinetic test in mice (intravenous and intragastric, plasma LC-MS/MS). The class given is in vivo. Particulars: male, mouse, Balb/c mice. Here is the method: 4. Pharmacokinetic test in mice
4.1. Experimental animals: Male Balb/c mice (20-25 g, 18 mice/compound) were purchased from Chengdu Dossy Experimental Animals Co., Ltd.
4.2. Experimental design: On the day of the experiment, the Balb/c mice were randomly grouped by body weight. The animals were fasted with water available for 12-14 h one day before the administration, and were fed 4 h after the administration. Table 4. Administration information
Before and after administration, 0.06 mL of blood was taken from the orbit under isoflurane anaesthesia, and placed in an EDTAK2 centrifuge tube. The tube was centrifuged at 5000 rpm at 4°C for 10 min, and plasma was collected. The blood collection time points for the intravenous group and intragastric group were both 0 min, 5 min, 15 min, 30 min, 1 h, 2 h, 4 h, 6 h, 8 h, and 24 h. Before analysis and detection, all samples were stored at -80°C, and the samples were quantitatively analysed by LC-MS/MS. Table 5. Pharmacokinetic parameters of test compounds in mouse plasma

A word on the IC50: it is the concentration that inhibits the measured activity by half. Read a low IC50 as inhibition by little substance. A word on the AUC(0-t): it is exposure summed from dosing to a finite time, without extrapolation to infinity. A high value points to high exposure. One may read the clearance as the rate of elimination divided by the concentration. A lower clearance goes with a low capacity for elimination. By bioavailability is commonly meant dose-corrected exposure relative to a reference, in per cent. A higher bioavailability goes with good availability. `CC(=O)NCCCC[C@@H]1NC(=O)[C@H](Cc2c[nH]c3c(C)cccc23)NC(=O)[C@H]([C@@H](C)O)NC(=O)[C@H](Cc2c[nH]cn2)NC(=O)[C@@H](NC(C)=O)C(C)(C)SSC(C)(C)[C@@H](C(=O)N[C@@H](Cc2ccc(OCCN)c3c2CCC3)C(=O)N[C@@H](Cc2ccc3ccccc3c2)C(=O)NC2(C(=O)N[C@@H](CCC(=O)O)C(=O)N[C@@H](CC(N)=O)C(=O)N[C@@H](Cc3cccnc3)C(=O)N(C)CC(N)=O)CCOCC2)NC1=O` [Compound 7] (Ac-[Pen]HT[Trp(7-Me)]K(Ac)[Pen][Phe(4-OC2H4NH2,2,3-(CH2)3)][2Nal][Thp]EN[3Pal][Sar]-NH2; disulfide 1-6) gave an IC50 on IL-23R of 6.38 nM. Further, the Peak area% is recorded as 94.095% in data set [1] (0 h), 93.552% in data set [1] (4.5 h), 93.575% in data set [1] (9.5 h) and 94.831% in data set [1] (18 h). The remaining at 6 h, 1000 ng/mL in data set [2] and in data set [3] was greater than 99% each time. In addition, the AUC(0-t) came out at 4720 ± 512 ng·h/mL in data set [4] (iv, i.v. (1 mg/kg)) and 227 ± 100 ng·h/mL in data set [4] (po, i.g. (10 mg/kg)). The compound also showed a clearance in data set [4] (iv, i.v. (1 mg/kg)) of 3.52 ± 0.38 mL/min/kg. Also, the Vd in data set [4] (iv, i.v. (1 mg/kg), read-out: Vdss) was 0.261 ± 0.01 L/kg. The same compound showed a bioavailability in data set [4] (po, i.g. (10 mg/kg)) of 0.482 ± 0.21%.
